From article PMC13110267, “Fair and Square: Design, Synthesis and Biological Evaluations of Squaric Acid Derivatives as Novel HDAC8 Inhibitors” (Chemmedchem, 2026)

What was measured:
Format in all cases: biochemical
HDAC6 = molecular target: T1, HDAC6 (Homo sapiens, UniProt Q9UBN7); test: HDAC6 fluorometric enzyme inhibition assay, purified enzyme; settings: Table 2; purified enzyme ~1 nM
T1 construct: purchased BPS Bioscience 50006
T1 sequence (Q9UBN7 1-1215): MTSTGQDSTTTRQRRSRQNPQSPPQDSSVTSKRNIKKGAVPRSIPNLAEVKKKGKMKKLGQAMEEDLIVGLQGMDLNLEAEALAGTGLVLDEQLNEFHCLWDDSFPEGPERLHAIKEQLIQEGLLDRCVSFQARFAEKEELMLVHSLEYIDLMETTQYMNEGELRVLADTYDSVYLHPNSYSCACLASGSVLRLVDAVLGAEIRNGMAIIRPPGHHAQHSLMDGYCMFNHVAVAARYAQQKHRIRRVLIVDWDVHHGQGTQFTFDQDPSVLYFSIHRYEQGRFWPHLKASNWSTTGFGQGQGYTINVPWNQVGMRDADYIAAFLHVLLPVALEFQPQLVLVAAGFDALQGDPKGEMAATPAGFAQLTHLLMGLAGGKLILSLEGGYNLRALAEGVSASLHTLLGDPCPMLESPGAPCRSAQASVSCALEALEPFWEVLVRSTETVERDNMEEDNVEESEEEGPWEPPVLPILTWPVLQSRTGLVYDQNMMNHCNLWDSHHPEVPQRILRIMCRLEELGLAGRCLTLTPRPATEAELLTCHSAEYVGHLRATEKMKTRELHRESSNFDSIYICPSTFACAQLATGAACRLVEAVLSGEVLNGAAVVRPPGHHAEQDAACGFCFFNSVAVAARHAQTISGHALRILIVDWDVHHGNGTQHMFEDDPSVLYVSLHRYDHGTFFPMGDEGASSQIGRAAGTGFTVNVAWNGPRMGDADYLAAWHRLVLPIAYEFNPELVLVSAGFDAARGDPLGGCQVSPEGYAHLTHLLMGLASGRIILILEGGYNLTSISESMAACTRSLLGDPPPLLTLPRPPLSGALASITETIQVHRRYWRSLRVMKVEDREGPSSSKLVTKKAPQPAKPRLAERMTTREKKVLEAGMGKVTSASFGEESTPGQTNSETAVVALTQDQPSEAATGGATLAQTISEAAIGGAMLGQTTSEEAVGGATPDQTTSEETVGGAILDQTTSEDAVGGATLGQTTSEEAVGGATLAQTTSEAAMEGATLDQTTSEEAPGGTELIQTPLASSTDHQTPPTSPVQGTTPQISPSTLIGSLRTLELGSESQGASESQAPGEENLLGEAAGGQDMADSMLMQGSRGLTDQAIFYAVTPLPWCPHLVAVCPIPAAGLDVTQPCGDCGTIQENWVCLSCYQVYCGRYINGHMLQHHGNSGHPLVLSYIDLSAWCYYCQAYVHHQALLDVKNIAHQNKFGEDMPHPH
Procedure: (§1) Therefore, the first stage of biological evaluation focused on determining inhibitory concentration (IC50) values of the squaric acid derivatives against HDAC8 and HDAC4 using purified recombinant enzymes. Enzymatic inhibition was quantified using 10‐point dose–response assays, from which IC50 values were calculated (Table 1). HDAC8 and HDAC4 were employed at concentrations of 10 nM and 1 nM, respectively, while other zinc‐dependent HDAC isoenzymes were used at approximate concentrations of ∼1 nM, reflecting the purity of the commercially available preparations. […]
(§2) 1.3.1 HDAC Assay General Inform ation
(§3) The activity of HDAC1, HDAC4, HDAC6, HDAC8, and HDAC11 was determined using a fluorometric assay in black half-area 96-well microplates (Greiner Bio -One , Germany). HDAC1 (#50051) and HDAC 6 (#50006) were purchased from BPS Bioscience.
(§4) HDAC4, HDAC8 and HDAC11 were produced in house as previously described.7- 9 The enzymes were pre-incubated with serial dilutions of the compounds for 1 hour at 30 °C in either assay buffer (25 mM Tris-HCl, 75 mM KCl and 0.001% (v/v) Pluronic F -127, pH 8.0) or MAL buffer (137 m M NaCl, 50 mM Tris-HCl, 2.7 mM KCl, 1 mM MgCl₂, 0 .5 mg/ml bovine serum albumin (BSA), pH 8.0b) for HDAC11. The enzyme reaction was initiated by the addition of the following substrates: 20 µM Boc-L ys(T FA) -AMC for HDAC4 and HDAC8; 80 µM Boc-L ys(T FA) -AMC for HDAC11; and 50 µM Boc -Lys(Ac)-AMC for HDAC1 and HDAC6. After an incubation period of 60 minutes, the reaction was terminated by the addition of 1.7 µM 9,9,9-trifluoro-8-oxo-N -phenyl -nonanamide (SATFMK) for […]
(§5) HDAC6, and 1 µM 1,1-dimethyl -2-[5-(trifluoromethyl)pyrazin-2-yl]isoindoline -4-carbohydroxamic acid (FT895) for HDAC11. The deacetylated substrate was then cleaved into fluorescent 7-amino -4- methylcoumarin (AMC) by the addition of 0.42 mg/mL trypsin.
(§6) Measurements were performed using a PHERAstar FS fluorescence microplate reader (BMG LABTECH) with excitation at 360 nm and emission at 460 nm. The normalised enzyme activities were plotted against the respective ligand concentration and fitted with a four-parameter logistic function using GraphPad Prism 6 software.

HDAC11 = molecular target: T2, HDAC11 (Homo sapiens, UniProt Q96DB2); test: HDAC11 fluorometric enzyme inhibition assay, purified enzyme; settings: Table 2; purified enzyme ~1 nM
T2 construct: made in house
T2 sequence (Q96DB2 1-347): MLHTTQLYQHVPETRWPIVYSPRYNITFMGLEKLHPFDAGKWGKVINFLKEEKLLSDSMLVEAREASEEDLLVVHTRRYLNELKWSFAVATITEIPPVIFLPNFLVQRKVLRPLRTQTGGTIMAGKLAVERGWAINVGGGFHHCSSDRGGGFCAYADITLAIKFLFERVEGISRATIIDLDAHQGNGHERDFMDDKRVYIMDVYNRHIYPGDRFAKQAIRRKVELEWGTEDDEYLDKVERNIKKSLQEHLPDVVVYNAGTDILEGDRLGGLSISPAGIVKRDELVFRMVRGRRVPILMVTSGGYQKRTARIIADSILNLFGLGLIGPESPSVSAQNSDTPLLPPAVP
Procedure: as §1, §2, §3, §4, §5, §6

HDAC1 = molecular target: T3, HDAC1 (Homo sapiens, UniProt Q13547); test: HDAC1 fluorometric enzyme inhibition assay, purified enzyme; settings: Table 2; purified enzyme ~1 nM
T3 construct: purchased BPS Bioscience 50051
Procedure: as §1, §2, §3, §4, §5, §6

HDAC4 = molecular target: T4, HDAC4 (Homo sapiens, UniProt P56524); test: HDAC4 fluorometric enzyme inhibition assay, purified recombinant enzyme, 10-point dose-response; settings: Table 1; purified recombinant HDAC4 1 nM; mean of three independent experiments; >35 µM = weak inhibitor
T4 construct: made in house
Procedure: as §1, §2, §3, §4, §5, §6

HDAC8 = molecular target: T5, HDAC8 (Homo sapiens, UniProt Q9BY41); test: HDAC8 fluorometric enzyme inhibition assay, purified recombinant enzyme, 10-point dose-response; settings: for IC50: Table 1, purified recombinant HDAC8 10 nM, mean of three independent experiments, >35 µM = weak inhibitor; for IC50 (HDAC4)/IC50 (HDAC8): selectivity ratio HDAC8 over HDAC4
T5 construct: made in house
T5 sequence (Q9BY41 1-377): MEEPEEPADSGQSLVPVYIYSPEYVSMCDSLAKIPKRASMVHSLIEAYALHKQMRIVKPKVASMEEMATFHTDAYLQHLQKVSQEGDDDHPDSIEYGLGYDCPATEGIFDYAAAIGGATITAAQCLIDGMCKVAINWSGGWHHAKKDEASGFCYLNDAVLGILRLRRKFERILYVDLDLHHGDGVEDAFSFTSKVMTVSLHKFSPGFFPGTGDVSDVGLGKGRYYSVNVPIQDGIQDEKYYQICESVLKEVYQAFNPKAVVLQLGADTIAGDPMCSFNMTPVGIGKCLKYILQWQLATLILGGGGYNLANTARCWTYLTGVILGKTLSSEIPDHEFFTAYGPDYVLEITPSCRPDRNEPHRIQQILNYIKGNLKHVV
Procedure: as §1, §2, §3, §4, §5, §6

T4 sequence (P56524 whole entry): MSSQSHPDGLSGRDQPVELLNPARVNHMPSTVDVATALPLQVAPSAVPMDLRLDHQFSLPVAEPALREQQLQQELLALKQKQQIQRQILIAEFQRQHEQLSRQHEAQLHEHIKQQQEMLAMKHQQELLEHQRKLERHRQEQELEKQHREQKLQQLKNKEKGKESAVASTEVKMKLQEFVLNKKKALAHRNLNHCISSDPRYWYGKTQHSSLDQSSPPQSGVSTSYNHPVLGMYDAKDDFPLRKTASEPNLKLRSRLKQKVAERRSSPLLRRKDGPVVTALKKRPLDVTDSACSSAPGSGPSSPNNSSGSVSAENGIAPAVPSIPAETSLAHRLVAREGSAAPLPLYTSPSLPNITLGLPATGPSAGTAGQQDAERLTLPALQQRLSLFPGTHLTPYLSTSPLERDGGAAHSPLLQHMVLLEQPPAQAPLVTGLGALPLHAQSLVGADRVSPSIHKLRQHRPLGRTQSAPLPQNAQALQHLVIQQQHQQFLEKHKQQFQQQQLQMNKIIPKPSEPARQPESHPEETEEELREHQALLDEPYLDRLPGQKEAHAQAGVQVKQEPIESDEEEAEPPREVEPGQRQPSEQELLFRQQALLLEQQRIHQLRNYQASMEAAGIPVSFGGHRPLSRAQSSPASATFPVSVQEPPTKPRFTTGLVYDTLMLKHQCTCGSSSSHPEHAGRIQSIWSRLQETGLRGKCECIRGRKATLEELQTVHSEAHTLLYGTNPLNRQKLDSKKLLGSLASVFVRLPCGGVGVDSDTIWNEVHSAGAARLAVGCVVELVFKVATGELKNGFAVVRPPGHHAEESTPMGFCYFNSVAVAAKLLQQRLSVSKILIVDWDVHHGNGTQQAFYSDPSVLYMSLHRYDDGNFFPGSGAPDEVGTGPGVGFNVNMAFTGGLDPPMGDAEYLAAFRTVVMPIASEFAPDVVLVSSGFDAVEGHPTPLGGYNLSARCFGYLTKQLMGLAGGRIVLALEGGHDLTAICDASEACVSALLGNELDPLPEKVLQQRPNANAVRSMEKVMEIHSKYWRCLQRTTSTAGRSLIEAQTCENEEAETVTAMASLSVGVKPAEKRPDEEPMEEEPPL
T3 sequence (Q13547 whole entry): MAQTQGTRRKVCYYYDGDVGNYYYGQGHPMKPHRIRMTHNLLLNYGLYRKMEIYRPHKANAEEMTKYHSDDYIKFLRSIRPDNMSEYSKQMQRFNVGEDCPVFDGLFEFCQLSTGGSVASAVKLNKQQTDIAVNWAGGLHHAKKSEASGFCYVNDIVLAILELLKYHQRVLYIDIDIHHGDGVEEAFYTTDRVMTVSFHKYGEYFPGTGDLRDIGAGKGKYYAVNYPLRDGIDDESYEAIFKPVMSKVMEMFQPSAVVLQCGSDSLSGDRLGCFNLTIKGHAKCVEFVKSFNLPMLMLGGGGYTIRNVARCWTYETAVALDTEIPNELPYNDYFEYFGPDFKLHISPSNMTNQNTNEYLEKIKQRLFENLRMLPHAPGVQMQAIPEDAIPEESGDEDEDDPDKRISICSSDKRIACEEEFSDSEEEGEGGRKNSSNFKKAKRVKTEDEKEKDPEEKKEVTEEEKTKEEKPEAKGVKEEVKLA

IC50 (HDAC6) [µM] | IC50 (HDAC11) [µM] | IC50 (HDAC1) [µM] | IC50 (HDAC4) [µM] | IC50 (HDAC8) [µM] | IC50 (HDAC4)/IC50 (HDAC8) (HDAC8) | SMILES
2.9 ± 1.3 | > 35 | 8.1 ± 4.3 | 11 ± 4 | 2 ± 1 | 5.5 | O=c1c(Nc2ccc(Br)cc2)c(Nc2ccc(Br)cc2)c1=O [Compound 13c]
6.1 ± 3.5 | > 35 | 8.3 ± 3.6 | 4.6 ± 0.9 | 1.8 ± 0.7 | 2.6 | O=c1c(NCc2ccccc2)c(NCc2ccccc2)c1=O [Compound 13b]
2.3 ± 1.6 | 25 ± 8 | 7 ± 2.7 | 8.5 ± 5.3 | 1.2 ± 0.03 | 7.1 | CCOc1c(Nc2ccc(F)cc2)c(=O)c1=O [Compound 9b]
6.9 ± 2.5 | > 35 | 17 ± 16 | 14 ± 3 | 1.3 ± 0.2 | 10.8 | CN(Cc1ccccc1)c1c(N(C)Cc2ccccc2)c(=O)c1=O [Compound 14b]
